In ChEMBL document CHEMBL1136194, “Discovery and evaluation of 3-(5-thien-3-ylpyridin-3-yl)-1H-indoles as a novel class of KDR kinase inhibitors” (Bioorg Med Chem Lett, 2003):
Converted amounts (≈) assume the structure as drawn.

Experiments:
[1] = Pharmacokinetic property (Vdss) for the compound (5 mg/kg iv) was determined in rats; type: ADME, organism-based; conditions: rat, in vivo, read-out: Vdss
[2] = Pharmacokinetic property (t1/2) for the compound ([…] mg/kg iv) was determined in rats; type: ADME, organism-based; conditions: rat, in vivo, 5 mg/kg
[3] = Oral bioavailability in rat (dose 20 mg/kg p.o.); type: ADME, organism-based; conditions: in vivo
[4] = Pharmacokinetic property (Clearance) for the compound (5 mg/kg iv) was determined in rats; type: ADME, organism-based; conditions: rat, in vivo
[5] = Solubility at pH 7.4 was determined; type: physicochemical; conditions: buffer
[6] = Solubility at pH 5.2 was determined; type: physicochemical; conditions: buffer
[7] = Partition coefficient (logP); type: physicochemical; conditions: octanol/water
[8] = Solubility was determined; type: physicochemical

Vd [1] [L/kg]	half-life [2] [h]	bioavailability [3] [%]	clearance [4] [mL/min/kg]	solubility [5] [µg/mL]	solubility [6] [µg/mL]	logP [7]	solubility [8] [µg/mL]	Compound
7.2	1.9	35	65	5 (≈ 12.8 µM)	24 (≈ 61.6 µM)	3.3		c1ccc2c(c1)c(-c1cncc(-c3ccsc3)c1)cn2CCN1CCOCC1
1.8	1.6	28	15	< 5	177 (≈ 441 µM)			c1ccc2c(c1)c(-c1cncc(-c3ccsc3)c1)cn2CCCN1CCCCC1
						> 4.1	< 5	CC(=O)Nc1oc(-c2cc3ccccc3cc2O)nc1-c1ccccc1
1.7	1.8	33	13	> 205	18200 (≈ 43600 µM)	3.7		CN1CCN(CCCn2cc(-c3cncc(-c4ccsc4)c3)c3ccccc32)CC1
